Assay results reported in US10226045B2, “Azoline compounds” (priority 2014, dated 2019).

Assays:
Type in all cases: in vivo
[1] = system: Green Soldier Stink Bug (Nezara viridula); test: Green soldier stink bug, sprayed soybean pods in Petri dishes; details: 120 h, 300 ppm, late 3rd instar on soybean pods, after 5 days, in comparison with untreated controls, read-out: mortality
Procedure: B.11 Green Soldier Stink Bug (Nezara viridula)
The active compound was dissolved at the desired concentration in a mixture of 1:1 (vol:vol) distilled water:acetone. Surfactant (Kinetic HV) was added at a rate of 0.01% (vol/vol). The test solution was prepared at the day of use.
Soybean pods were placed in glass Petri dishes lined with moist filter paper and inoculated with ten late 3rd instar N. viridula. Using a hand atomizer, approximately 2 ml solution is sprayed into each Petri dish. Assay arenas were kept at about 25° C. Percent mortality was recorded after 5 days.

[2] = system: Tobacco Budworm (Heliothis virescens); test: Tobacco budworm, insect diet microtiter plate test; details: 120 h, 2500 ppm, eggs on sprayed insect diet, egg and larval mortality after 5 days, in comparison with untreated controls, read-out: mortality
Procedure: B.4 Tobacco Budworm (Heliothis virescens)
For evaluating control of tobacco budworm (HeliothiS virescens) the test unit consisted of 96-well-microtiter plates containing an insect diet and 15-25 H. virescens eggs.
The compounds were formulated using a solution containing 75% v/v water and 25% v/v DMSO. Different concentrations of formulated compounds were sprayed onto the insect diet at 10 μl, using a custom built micro atomizer, at two replications.
After application, microtiter plates were incubated at about 28±1° C. and about 80±5% relative humidity for 5 days. Egg and larval mortality was then visually assessed.

[3] = system: Neotropical Brown Stink Bug (Euschistus heros); test: Neotropical brown stink bug, sprayed soybean pods in cups; details: 120 h, 100 ppm, adults on soybean pods, after 5 days, in comparison with untreated controls, read-out: mortality
Procedure: B.12 Neotropical Brown Stink Bug (Euschistus heros)
The active compound was dissolved at the desired concentration in a mixture of 1:1 (vol:vol) distilled water: acetone. Surfactant (Kinetic HV) was added at a rate of 0.01% (vol/vol). The test solution was prepared at the day of use.
Soybean pods were placed in microwavable plastic cups and inoculated with ten adult stage E. heros. Using a hand atomizer, approximately 1 ml solution is sprayed into each cup, insects and food present. A water source was provided (cotton wick with water). Each treatment was replicated 2-fold. Assay arenas were kept at about 25° C. Percent mortality was recorded after 5 days.

[4] = system: Southern Armyworm (Spodoptera eridania); test: Southern armyworm, sprayed lima bean plants; details: 96 h, 1 ppm, larvae on sprayed lima bean plants, 4 days after treatment, in comparison with untreated controls, read-out: mortality
Procedure: B.10 Southern Armyworm (Spodoptera eridania)
The active compounds were formulated in cyclohexanone as a 10,000 ppm solution supplied in tubes. The tubes were inserted into an automated electrostatic sprayer equipped with an atomizing nozzle and they served as stock solutions for which lower dilutions were made in 50% acetone:50% water (v/v). A nonionic surfactant (Kinetic®) was included in the solution at a volume of 0.01% (v/v).
Lima bean plants (variety Sieva) were grown 2 plants to a pot and selected for treatment at the 1st true leaf stage. Test solutions were sprayed onto the foliage by an automated electrostatic plant sprayer equipped with an atomizing spray nozzle. The plants were dried in the sprayer fume hood and then removed from the sprayer. Each pot was placed into perforated plastic bags with a zip closure. About 10 to 11 armyworm larvae were placed into the bag and the bags zipped closed. Test plants were maintained in a growth room at about 25° C. and about 20-40% relative humidity for 4 days, avoiding direct exposure to fluorescent light (24 hour photoperiod) to prevent trapping of heat inside the bags. Mortality and reduced feeding were assessed 4 days after treatment, compared to untreated control plants.

O=C(NC1CS(=O)(=O)C1)c1ccc(C2=NCC(c3cc(Cl)c(F)c(Cl)c3)(C(F)(F)F)C2)c2c1CCC2 (stereo not shown) [Compound 2-3, 7-[3-(3,5-Dichloro-4-fluoro-phenyl)-3-(trifluoromethyl)-2,4-dihydropyrrol-5-yl]-N-(1,1-dioxothietan-3-yl)indane-4-carboxamide]
≥ 75%: mortality at 300 ppm [1] | mortality at 2500 ppm [2] | mortality at 100 ppm [3] | mortality at 1 ppm [4]
